ChEMBL document CHEMBL5260802, “Discovery of Novel Allosteric HCV NS5B Inhibitors. 2. Lactam-Containing Thiophene Carboxylates” (ACS Med Chem Lett, 2017)

Legend:
[1] = Drug uptake in human hepatocytes at 4 degree C for 15 mins by LC/MS/MS analysis; assay type: ADME, cell-based, Hepatocyte; conditions: 0.25 h
[2] = AUC (0 to infinity) in Sprague-Dawley rat at 1 mg/kg,iv and measured after 72 hrs by LC/MS/MS analysis; assay type: ADME, organism-based; parameters: time 72 hrs, dose 1 mg/kg, route iv; conditions: Sprague-Dawley, in vivo
[3] = Drug uptake in human hepatocytes at 37 degree C for 15 mins by LC/MS/MS analysis; assay type: ADME, cell-based, Hepatocyte; conditions: 0.25 h
[4] = Unbound clearance in Sinclair Lab dog at 1 mg/kg,iv and measured after 72 hrs by LC/MS/MS analysis; assay type: ADME, organism-based, Canis lupus familiaris; conditions: in vivo
[5] = Oral bioavailability in Sprague-Dawley rat at 3 mg/kg and measured after 72 hrs by LC/MS/MS analysis; assay type: ADME, organism-based; conditions: in vivo
[6] = Clearance in Sinclair Lab dog at 1 mg/kg,iv and measured after 72 hrs by LC/MS/MS analysis; assay type: ADME, organism-based, Canis lupus familiaris; conditions: in vivo
[7] = Unbound clearance in Cynomolgus monkey at 1 mg/kg,iv and measured after 72 hrs by LC/MS/MS analysis; assay type: ADME, organism-based, Macaca fascicularis; conditions: in vivo
[8] = Clearance in Cynomolgus monkey at 1 mg/kg,iv and measured after 72 hrs by LC/MS/MS analysis; assay type: ADME, organism-based, Macaca fascicularis; conditions: in vivo
[9] = Volume of distribution at steady state in Sprague-Dawley rat at 1 mg/kg,iv and measured after 72 hrs by LC/MS/MS analysis; assay type: ADME, organism-based; conditions: in vivo, read-out: Vdss
[10] = molecular target: Cytochrome P450 2C9 (Homo sapiens, UniProt P11712); assay: Inhibition of CYP2C9 in human liver microsomes incubated for 10 mins in presence of NADPH by LC/MS/MS analysis; assay type: ADME, Microsome
Cytochrome P450 2C9, sequence (P11712 whole entry): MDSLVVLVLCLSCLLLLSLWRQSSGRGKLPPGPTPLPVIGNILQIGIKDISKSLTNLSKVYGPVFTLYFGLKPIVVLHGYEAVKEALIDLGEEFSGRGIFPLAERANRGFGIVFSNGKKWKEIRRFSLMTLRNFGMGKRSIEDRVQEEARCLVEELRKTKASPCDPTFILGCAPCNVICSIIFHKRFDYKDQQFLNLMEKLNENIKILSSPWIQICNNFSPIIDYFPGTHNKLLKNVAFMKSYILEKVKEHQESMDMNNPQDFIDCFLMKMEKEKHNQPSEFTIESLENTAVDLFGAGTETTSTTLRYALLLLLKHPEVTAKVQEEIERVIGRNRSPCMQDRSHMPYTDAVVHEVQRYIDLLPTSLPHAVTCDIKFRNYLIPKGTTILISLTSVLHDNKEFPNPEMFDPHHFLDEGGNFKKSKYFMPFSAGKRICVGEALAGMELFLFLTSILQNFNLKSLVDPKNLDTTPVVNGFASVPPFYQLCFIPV

[11] = AUC (0 to infinity) in Cynomolgus monkey at 1 mg/kg,iv and measured after 72 hrs by LC/MS/MS analysis; assay type: ADME, organism-based, Macaca fascicularis; parameters: dose 1 mg/kg, time 72 hrs, route iv; conditions: in vivo
[12] = molecular target: Cytochrome P450 2D6 (Homo sapiens, UniProt P10635); assay: Inhibition of CYP2D6 in human liver microsomes incubated for 10 mins in presence of NADPH by LC/MS/MS analysis; assay type: ADME, Microsome
Cytochrome P450 2D6, sequence (P10635 whole entry): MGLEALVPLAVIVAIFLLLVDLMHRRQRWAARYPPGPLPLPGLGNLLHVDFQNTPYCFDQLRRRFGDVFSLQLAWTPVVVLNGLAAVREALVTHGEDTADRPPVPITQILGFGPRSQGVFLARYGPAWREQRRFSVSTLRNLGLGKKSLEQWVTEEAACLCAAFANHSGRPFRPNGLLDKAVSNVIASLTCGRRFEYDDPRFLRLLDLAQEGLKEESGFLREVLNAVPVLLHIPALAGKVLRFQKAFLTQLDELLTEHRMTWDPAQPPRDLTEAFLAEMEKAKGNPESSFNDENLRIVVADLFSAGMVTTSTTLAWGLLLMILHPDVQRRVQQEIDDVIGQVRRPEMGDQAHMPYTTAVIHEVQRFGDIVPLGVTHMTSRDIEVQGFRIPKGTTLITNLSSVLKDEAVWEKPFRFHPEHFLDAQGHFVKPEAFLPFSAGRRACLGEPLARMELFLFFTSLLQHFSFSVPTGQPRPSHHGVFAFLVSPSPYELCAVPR

[13] = tested on: Hepatitis C virus; assay: Antiviral activity against Hepatitis C virus subtype 1b infected in Huh-7 cells transfected with HCV subgenomic replicon for NS5B polymerase assessed as inhibition of viral replication measured upto 96 hrs by luciferase reporter gene assay; assay type: functional, organism-based, Hepacivirus hominis
[14] = Cmax in Sprague-Dawley rat at 3 mg/kg,po and measured after 72 hrs by LC/MS/MS analysis; assay type: ADME, organism-based; parameters: time 72 hrs, dose 3 mg/kg, route po; conditions: in vivo
[15] = Clearance in Sprague-Dawley rat at 1 mg/kg,iv and measured after 72 hrs by LC/MS/MS analysis; assay type: ADME, organism-based; conditions: in vivo
[16] = Unbound clearance in Sprague-Dawley rat at 1 mg/kg,iv and measured after 72 hrs by LC/MS/MS analysis; assay type: ADME, organism-based; conditions: in vivo
[17] = Half life in Sprague-Dawley rat at 3 mg/kg,po and measured after 72 hrs by LC/MS/MS analysis; assay type: ADME, organism-based; conditions: in vivo
[18] = Volume of distribution at steady state in Cynomolgus monkey at 1 mg/kg,iv and measured after 72 hrs by LC/MS/MS analysis; assay type: ADME, organism-based, Macaca fascicularis; conditions: in vivo, read-out: Vdss
[19] = molecular target: Cytochrome P450 3A4 (Homo sapiens, UniProt P08684); assay: Inhibition of CYP3A4 in human liver microsomes incubated for 10 mins in presence of NADPH by LC/MS/MS analysis; assay type: ADME, Microsome
Cytochrome P450 3A4, sequence (P08684 whole entry): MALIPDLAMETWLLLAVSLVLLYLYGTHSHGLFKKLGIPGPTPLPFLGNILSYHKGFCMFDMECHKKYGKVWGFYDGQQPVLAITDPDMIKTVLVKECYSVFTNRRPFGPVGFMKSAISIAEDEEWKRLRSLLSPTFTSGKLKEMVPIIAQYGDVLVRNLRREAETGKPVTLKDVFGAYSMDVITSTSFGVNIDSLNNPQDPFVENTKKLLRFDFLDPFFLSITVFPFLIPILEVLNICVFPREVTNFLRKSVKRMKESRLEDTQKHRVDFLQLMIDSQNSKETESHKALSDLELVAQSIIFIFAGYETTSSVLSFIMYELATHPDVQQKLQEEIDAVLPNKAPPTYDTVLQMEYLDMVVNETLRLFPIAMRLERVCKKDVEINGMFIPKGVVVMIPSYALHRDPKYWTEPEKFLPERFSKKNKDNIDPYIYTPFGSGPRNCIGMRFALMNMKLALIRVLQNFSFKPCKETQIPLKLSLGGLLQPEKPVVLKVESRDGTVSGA

[20] = Volume of distribution at steady state in Sinclair Lab dog at 1 mg/kg,iv and measured after 72 hrs by LC/MS/MS analysis; assay type: ADME, organism-based, Canis lupus familiaris; conditions: in vivo, read-out: Vdss
[21] = Drug excretion in bile-duct cannulated Sprague-Dawley rat assessed as bile elimination at 15 mg/kg,po and measured after 72 hrs by LC/MS/MS analysis; assay type: ADME, organism-based; conditions: in vivo
[22] = Drug distribution in Sprague-Dawley rat plasma at 10 mg/kg,po and measured upto 24 hrs by LC/MS/MS analysis; assay type: ADME, organism-based; conditions: in vivo
[23] = Cytotoxicity against human Huh-7 cells transfected with HCV subgenomic replicon for NS5B polymerase assessed as reduction in cell viability; assay type: toxicity, cell-based
[24] = Microsomal stability in rat liver microsomes assessed as parent compound remaining at 1 uM and measured after 30 mins in presence of NADPH by LC/MS/MS analysis; assay type: ADME, Microsome; conditions: 0.5 h
[25] = Half life in Sinclair Lab dog at 1 mg/kg,iv and measured after 72 hrs by LC/MS/MS analysis; assay type: ADME, organism-based, Canis lupus familiaris; conditions: in vivo
[26] = Unbound AUC (0 to infinity) in Cynomolgus monkey at 1 mg/kg,iv and measured after 72 hrs by LC/MS/MS analysis; assay type: ADME, organism-based, Macaca fascicularis; conditions: in vivo
[27] = Unbound AUC (0 to infinity) in Sprague-Dawley rat at 1 mg/kg,iv and measured after 72 hrs by LC/MS/MS analysis; assay type: ADME, organism-based; conditions: in vivo
[28] = Drug distribution in Sprague-Dawley rat liver at 10 mg/kg,po and measured upto 24 hrs by LC/MS/MS analysis; assay type: ADME, organism-based; conditions: in vivo
[29] = molecular target: T1, PXR (Homo sapiens, UniProt O75469); assay: Activation of human PXR expressed in human DPX2 co-expressing luciferase reporter gene assessed as maximum efficacy incubated for 24 hrs by luciferase assay relative to control; assay type: cell-based; conditions: DPX2 cells expressing human PXR and luciferase reporter gene
T1 sequence (O75469 whole entry): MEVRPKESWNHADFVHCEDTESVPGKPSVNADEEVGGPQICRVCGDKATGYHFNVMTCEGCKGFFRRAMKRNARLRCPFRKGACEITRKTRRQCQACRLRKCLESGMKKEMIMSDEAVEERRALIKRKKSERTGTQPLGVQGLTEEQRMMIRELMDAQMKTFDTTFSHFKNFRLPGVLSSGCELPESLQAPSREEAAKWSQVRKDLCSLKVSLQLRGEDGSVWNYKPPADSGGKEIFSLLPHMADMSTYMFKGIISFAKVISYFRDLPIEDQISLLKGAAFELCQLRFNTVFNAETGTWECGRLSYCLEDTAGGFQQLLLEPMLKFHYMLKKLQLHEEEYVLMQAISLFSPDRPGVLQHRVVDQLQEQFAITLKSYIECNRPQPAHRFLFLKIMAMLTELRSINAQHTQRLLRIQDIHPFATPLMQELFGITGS

[30] = AUC (0 to infinity) in Sprague-Dawley rat at 3 mg/kg,po and measured after 72 hrs by LC/MS/MS analysis; assay type: ADME, organism-based; parameters: time 72 hrs, dose 3 mg/kg, route po; conditions: in vivo
[31] = Unbound AUC (0 to infinity) in Sinclair Lab dog at 1 mg/kg,iv and measured after 72 hrs by LC/MS/MS analysis; assay type: ADME, organism-based, Canis lupus familiaris; conditions: in vivo
[32] = Microsomal stability in human liver microsomes assessed as parent compound remaining at 1 uM and measured after 30 mins in presence of NADPH by LC/MS/MS analysis; assay type: ADME, Microsome; conditions: 0.5 h
[33] = Half life in Cynomolgus monkey at 1 mg/kg,iv and measured after 72 hrs by LC/MS/MS analysis; assay type: ADME, organism-based, Macaca fascicularis; conditions: in vivo
[34] = Protein binding in rat plasma at 1 uM incubated for 6 hrs by LC-MS/MS based rapid equilibrium dialysis method; assay type: ADME, cell-free; conditions: read-out: PPB (converted)
[35] = Half life in Sprague-Dawley rat at 1 mg/kg,iv and measured after 72 hrs by LC/MS/MS analysis; assay type: ADME, organism-based; conditions: in vivo
[36] = molecular target: T2, Nuclear receptor subfamily 1 group I member 2 (Homo sapiens, UniProt O75469); assay: Activation of human PXR expressed in human DPX2 co-expressing luciferase reporter gene incubated for 24 hrs by luciferase assay; assay type: cell-based
T2 sequence (O75469 whole entry): T1 sequence (O75469 whole entry)

[37] = tested on: Hepatitis C virus; assay: Antiviral activity against Hepatitis C virus subtype 1b infected in Huh-7 cells transfected with HCV subgenomic replicon for NS5B polymerase assessed as inhibition of viral replication measured upto 96 hrs in presence of 40% of human serum by luciferase reporter gene assay; assay type: functional, organism-based, Hepacivirus hominis; conditions: Huh-7, 96 h
[38] = Unbound AUC (0 to infinity) in Sprague-Dawley rat at 3 mg/kg,po and measured after 72 hrs by LC/MS/MS analysis; assay type: ADME, organism-based; conditions: in vivo
[39] = AUC (0 to infinity) in Sinclair Lab dog at 1 mg/kg,iv and measured after 72 hrs by LC/MS/MS analysis; assay type: ADME, organism-based, Canis lupus familiaris; parameters: time 72 hrs, dose 1 mg/kg, route iv; conditions: in vivo

SMILES: CN1CCCC[C@H](N(c2cc(C#CC(C)(C)C)sc2C(=O)O)C(=O)[C@H]2CC[C@H](C)CC2)C1=O
- Drug uptake [1]: Active
- AUC(0-inf) [2]: 1480 ng·h/mL
- Drug uptake [3]: Active
- CL free [4]: 2140 mL/min/kg
- bioavailability [5]: 97%
- clearance [6]: 15 mL/min/kg
- CL free [7]: 3350 mL/min/kg
- clearance [8]: 33.5 mL/min/kg
- Vd [9]: 1.95 L/kg
- IC50 [10]: > 30000 nM
- AUC(0-inf) [11]: 443 ng·h/mL
- IC50 [12]: > 30000 nM
- IC50 ([13]; Huh-7, 96 h): 4 nM
- IC90 ([13]; Huh-7, time <= 96 hrs): 12 nM
- Cmax [14]: 1040 ng/mL
- clearance [15]: 16.1 mL/min/kg
- CL free [16]: 2010 mL/min/kg
- half-life [17]: 2.91 h
- Vd [18]: 5.27 L/kg
- IC50 [19]: > 30000 nM
- Vd [20]: 1.59 L/kg
- Drug excretion [21]: Active
- Drug uptake [22]: Active
- CC50 [23]: > 20000 nM
- Stability [24]: Stable
- half-life [25]: 1.39 h
- fAUC [26]: 4.43 ng·h/mL
- fAUC [27]: 11.8 ng·h/mL
- Drug uptake [28]: Active
- Emax at 24 h [29]: 10%
- AUC(0-inf) [30]: 3820 ng·h/mL
- fAUC [31]: 10.1 ng·h/mL
- Stability [32]: Stable
- half-life [33]: 5.44 h
- fraction unbound at 6 h, 1 µM [34]: 0.008
- half-life [35]: 2.12 h
- EC50 [36]: > 30000 nM
- IC50 [37]: 23 nM
- fAUC [38]: 30.6 ng·h/mL
- AUC(0-inf) [39]: 1450 ng·h/mL
